Results from patent US20230286973A1, “PROTEIN SECRETION INHIBITORS” (KEZAR LIFE SCIENCES, priority 2020, published 2023).
pEC50, pIC50: −log10 of the molar value.

Tests used:
[1] = Liver Microsome Stability Assay (monkey); settings: monkey liver microsomes, with NADPH, 1.0 uM compound
Description: (§4) Stability of a compound was assessed in the presence of liver microsomes from various sources—mouse, rat, monkey and human liver microsomes. 1.0 uM compound, 0.4% DMSO in 0.1 M Potassium Phosphate with 1.0 mg/mL liver microsomes, were incubated at 37° C. with or without 1 mM NADPH. The samples were quenched at 0, and 30 minutes.

[2] = test system: multiple myeloma cell line U266B1; experiment: U266 Cell Viability Assay; format: cell-based, human; settings: Homo sapiens, U-266, 48 h, U266B1 cells, Celltiter-Glo
Description: (§1) The human multiple myeloma cell line U266B1 was cultured in RPMI 1640 media supplemented with 10% fetal bovine serum, 2 mM Glutamine, and 1× Penicillin/Streptomycin. Cells were plated in 384-well tissue culture plates and treated with compound dilutions in DMSO/media. Plates were incubated at 37° C., 5% CO2 for 48 hours. After 48 hours, Celltiter-Glo® (Promega) was added to each well and luciferase signal was quantified using Tecan Infinite M1000 Pro for cell viability determination.
(§2) For chemical structures that include one or more stereoisomers, but are illustrated without indicating stereochemistry, the assay data refers to a mixture of stereoisomers.

[3] = Liver Microsome Stability Assay (human); settings: human liver microsomes, with NADPH, 1.0 uM compound
Description: as §4

[4] = test system: multiple myeloma cell line NCI-H929; experiment: H929 Cell Viability Assay; format: cell-based, human; settings: Homo sapiens, NCI-H929, 48 h, NCI-H929 cells, Celltiter-Glo
Description: as §1, with “NCI-H929” for “U266B1”, “cultured in Advanced RPMI 1640 media (Gibco®) supplemented with 6% fetal bovine serum, 2 mM Glutamine, and 1× Penicillin/Streptomycin. On the day of assay, cells were resuspended” for “cultured”, “Penicillin/Streptomycin and” for “Penicillin/Streptomycin. Cells were”
as §2

[5] = test system: IL-2-FL/Gaussia Luciferase; experiment: Dox Induced IL2-FL-Gluc Assay; format: cell-based; settings: for pIC50: 24 hr Dox induction, 293FRT/TO cells, mean, read-out: 24 hr Dox Inducible IL2FLGluc 293FRT/TO: Mean IC50; for 24 hr Dox Inducible IL2FLGluc 293FRT/TO: IL2/PD1: ratio of IL2FLGluc IC50 to PD1ssGluc IC50, '<=>' given where both are I.A.
From the text: (§3) Flp-In 293 T-REx™ cells were transfected with pcDNA™5/FRT/TO plasmid inserted with cDNA encoding Gaussia Luciferase fused to the 3′ end of cDNA encoding full length IL-2 (amino acids 1-153). Transfected cells were selected for resistance to the selectable markers Hygromycin and Blasticidin to create a stable cell line that contained the IL-2-FL/Gaussia Luciferase cDNA insert whose expression was regulated under the T-REx™ system. The day before assay, cells were trypsinized and plated in 384-well tissue culture plates. The next day, compound dilutions in DMSO/media containing doxycycline were added to the wells and incubated at 37° C., 5% CO2.
as §2

[6] = Liver Microsome Stability Assay (rat); settings: rat liver microsomes, with NADPH, 1.0 uM compound
Description: as §4

[7] = test system: PD1-ss+10aa/Gaussia Luciferase; experiment: Dox-Induced PD1-ss-Gluc Assay; format: cell-based; settings: 24 hr Dox induction; 293FRT/TO cells; mean; read-out: 24 hr Dox Inducible PD1ssGluc 293FRT/TO: Mean IC50
From the text: as §3, with “PD1 signal sequence plus 10 amino” for “full length IL-2 (amino”, “(N-[…]-C) (SEQ ID NO: 1).” for “1-153).”, “PD1-ss+10aa/Gaussia” for “IL-2-FL/Gaussia”
as §2

[8] = Liver Microsome Stability Assay (mouse); settings: mouse liver microsomes, with NADPH, 1.0 uM compound
Description: as §4

Row | SMILES | Liver Microsome Stability (Multiple Species): Monkey - % Remaining after 30 min w/NADPH [1] | pEC50 [2] | Liver Microsome Stability (Multiple Species): Human - % Remaining after 30 min w/NADPH [3] | pEC50 [4] | pIC50 [5] | Liver Microsome Stability (Multiple Species): Rat - % Remaining after 30 min w/NADPH [6] | pIC50 [7] | Liver Microsome Stability (Multiple Species): Mouse - % Remaining after 30 min w/NADPH [8] | 24 hr Dox Inducible IL2FLGluc 293FRT/TO: IL2/PD1 [5]
1 | O=C(Nc1nc([C@H]2CCCN2c2ccccc2)cs1)c1cccn1CC1CCS(=O)(=O)CC1 [Compound C37, (R)-1-((1,1-dioxidotetrahydro-2H-thiopyran-4-yl)methyl)-N-(4-(1-phenylpyrrolidin-2-yl)thiazol-2-yl)-1H-pyrrole-2-carboxamide] | 8.58% | < 4.60 | 6.44% | < 4.60 | < 4.60 | 0.08% | < 4.60 | 26% | 
2 | C#CCCCn1cccc1C(=O)Nc1nc([C@H]2CCCN2c2ccccc2)cs1 [Compound C31, (R)-1-(pent-4-yn-1-yl)-N-(4-(1-phenylpyrrolidin-2-yl)thiazol-2-yl)-1H-pyrrole-2-carboxamide] | 1.3% | < 4.60 | 53.4% | < 4.60 | 5.15 | 5.84% | 5.38 | 38.7% | 1.7
3 | C#CCCn1cccc1C(=O)Nc1nc([C@H]2CCCN2c2ccccc2)cs1 [Compound C62, (R)-1-(but-3-yn-1-yl)-N-(4-(1-phenylpyrrolidin-2-yl)thiazol-2-yl)-1H-pyrrole-2-carboxamide] | 0.74% | < 4.60 | 53% | < 4.60 | < 4.60 | 8.75% | 5.07 | 35.4% | >3.0
4 | O=C(Nc1nc([C@H]2CCCN2c2ccccc2)cs1)c1cccn1CC1CCC(F)(F)CC1 [Compound C21, (R)-1-((4,4-difluorocyclohexyl)methyl)-N-(4-(1-phenylpyrrolidin-2-yl)thiazol-2-yl)-1H-pyrrole-2-carboxamide] | 49% | < 4.60 | 64% | < 4.60 | < 4.60 | 12.2% | < 4.60 | 60.5% | 

More lines, main results first:

Row | Liver Microsome Stability (Multiple Species): Monkey - % Remaining after 30 min w/NADPH [1] | pEC50 [2] | Liver Microsome Stability (Multiple Species): Human - % Remaining after 30 min w/NADPH [3] | pEC50 [4] | pIC50 [5] | Liver Microsome Stability (Multiple Species): Rat - % Remaining after 30 min w/NADPH [6] | pIC50 [7] | Liver Microsome Stability (Multiple Species): Mouse - % Remaining after 30 min w/NADPH [8] | SMILES | 24 hr Dox Inducible IL2FLGluc 293FRT/TO: IL2/PD1 [5]
5 | 53.9% | < 4.60 | 79.7% | < 4.60 | 5.47 | 56.6% | 5.56 | 64.7% | O=C(Nc1nc([C@H]2CCCN2c2ccccc2)cs1)c1cccn1CC1CCCCC1 [Compound C39, (R)-1-(cyclohexylmethyl)-N-(4-(1-phenylpyrrolidin-2-yl)thiazol-2-yl)-1H-pyrrole-2-carboxamide] | 1.2
6 | 3.43% | < 4.60 | 4.2% | 4.63 | 5.97 | 0.43% | 6.45 | 9.54% | O=C(Nc1nc([C@H]2CCCN2c2ccccc2)cs1)c1cccn1CC1=CCOCC1 [Compound C57, (R)-1-((3,6-dihydro-2H-pyran-4-yl)methyl)-N-(4-(1-phenylpyrrolidin-2-yl)thiazol-2-yl)-1H-pyrrole-2-carboxamide] | 3
7 | 0.62% | 4.63 | 0.96% | 4.61 | 5.30 | 0.14% | 5.60 | 0.82% | O=C(Nc1nc([C@H]2CCCN2c2ccccc2)cs1)c1cccn1Cc1cccnc1 [Compound E20, (R)-N-(4-(1-phenylpyrrolidin-2-yl)thiazol-2-yl)-1-(pyridin-3-ylmethyl)-1H-pyrrole-2-carboxamide] | 2
8 | 7.34% | < 4.60 | 26.7% | < 4.60 | < 4.60 | 1.33% | 5.08 | 8.68% | O=C(Nc1nc([C@H]2CCCN2c2ccccc2)cs1)c1ccc[nH]1 [Compound E58, (R)-N-(4-(1-phenylpyrrolidin-2-yl)thiazol-2-yl)-1H-pyrrole-2-carboxamide] | >3.0
9 | 3.74% | < 4.60 | 3.25% | 4.62 | 5.58 | 1.26% | 6.17 | 4.86% | O=C(Nc1nc([C@H]2CCCN2c2ccccc2)cs1)c1cccn1CCCc1c[nH]nn1 [Compound C27, (R)-1-(3-(1H-1,2,3-triazol-5-yl)propyl)-N-(4-(1-phenylpyrrolidin-2-yl)thiazol-2-yl)-1H-pyrrole-2-carboxamide] | 3.9
10 | 41.9% | < 4.60 | 46.1% | < 4.60 | < 4.60 | 17% | 5.31 | 37.5% | O=C(Nc1nc([C@H]2CCCN2c2ccccc2)cs1)c1cccn1Cc1cnn[nH]1 [Compound C29, (R)-1-((1H-1,2,3-triazol-5-yl)methyl)-N-(4-(1-phenylpyrrolidin-2-yl)thiazol-2-yl)-1H-pyrrole-2-carboxamide] | >5.1
